Experimental data reported in US20060257987A1, “Ppar modulators” (priority 2003, published 2006).
pEC50: −log10 of the molar value.

Experiments:
huPPARδ = molecular target: T1, huPPARδ (Homo sapiens, UniProt Q03181); test: Cotransfection assay in CV-1 cells, GAL4 chimeric system, luciferase reporter
T1 sequence (Q03181 211-441 limits assumed): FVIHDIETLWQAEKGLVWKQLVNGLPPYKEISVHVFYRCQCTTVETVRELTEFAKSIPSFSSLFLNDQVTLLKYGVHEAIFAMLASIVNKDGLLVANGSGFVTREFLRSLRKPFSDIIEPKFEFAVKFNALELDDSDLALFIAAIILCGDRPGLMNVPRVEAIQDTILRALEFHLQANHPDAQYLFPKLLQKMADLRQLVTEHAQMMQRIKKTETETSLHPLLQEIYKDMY
Protocol: (§1) Cotransfection assays are carried out in CV-1 cells. The reporter plasmid contains an acylCoA oxidase (AOX) PPRE and TK promoter upstream of the luciferase reporter cDNA. Appropriate PPARs and RXRα are constitutively expressed using plasmids containing the CMV promoter. Since for PPARα and PPARβ, interference by endogenous PPARγ in CV-1 cells is an issue, in order to eliminate such interference, a GAL4 chimeric system is used in which the DNA binding domain of the transfected PPAR is replaced by that of GAL4, and the GAL4 response element is utilized in place of the AOX PPRE. Receptor activation by compounds of the present invention is determined relative to PPARα agonist and PPARγ agonist reference molecules to obtain percent efficacies. EC50 values are determined by computer fit to a concentration-response curve. […] In some cases, a single high concentration of agonist (10 μM) was used.

huPPARα = molecular target: T2, huPPARα (Homo sapiens, UniProt Q07869); test: as above
T2 sequence (Q07869 200-468 limits assumed): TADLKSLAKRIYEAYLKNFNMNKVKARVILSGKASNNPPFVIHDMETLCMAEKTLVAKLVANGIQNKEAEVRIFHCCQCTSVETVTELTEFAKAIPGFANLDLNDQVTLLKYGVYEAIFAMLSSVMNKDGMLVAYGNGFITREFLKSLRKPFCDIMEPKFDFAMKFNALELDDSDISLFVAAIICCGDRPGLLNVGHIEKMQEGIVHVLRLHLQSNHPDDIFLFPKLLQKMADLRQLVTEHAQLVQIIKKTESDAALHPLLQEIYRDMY
Protocol: as §1

huPPARγ = molecular target: T3, huPPARγ (Homo sapiens, UniProt P37231); test: Cotransfection assay in CV-1 cells, AOX PPRE luciferase reporter; format: cell-based
T3 construct: expressed in transfected cells; host or cells: CV-1 cells
T3 sequence (P37231 1-505): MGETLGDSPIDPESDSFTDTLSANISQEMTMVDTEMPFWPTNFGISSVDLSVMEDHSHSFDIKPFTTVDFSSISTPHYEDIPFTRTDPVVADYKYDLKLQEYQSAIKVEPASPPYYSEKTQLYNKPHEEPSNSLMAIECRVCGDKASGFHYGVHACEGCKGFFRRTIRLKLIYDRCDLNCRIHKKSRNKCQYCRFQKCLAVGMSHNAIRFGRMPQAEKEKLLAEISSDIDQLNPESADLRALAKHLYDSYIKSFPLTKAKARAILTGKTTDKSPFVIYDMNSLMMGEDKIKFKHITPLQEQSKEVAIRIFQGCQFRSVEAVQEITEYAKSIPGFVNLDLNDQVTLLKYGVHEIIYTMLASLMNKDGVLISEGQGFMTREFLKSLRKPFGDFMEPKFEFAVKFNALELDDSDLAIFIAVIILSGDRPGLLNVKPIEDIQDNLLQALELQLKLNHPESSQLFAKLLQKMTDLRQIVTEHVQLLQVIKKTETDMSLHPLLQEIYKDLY
T3 sequence (P19793 1-462 partner): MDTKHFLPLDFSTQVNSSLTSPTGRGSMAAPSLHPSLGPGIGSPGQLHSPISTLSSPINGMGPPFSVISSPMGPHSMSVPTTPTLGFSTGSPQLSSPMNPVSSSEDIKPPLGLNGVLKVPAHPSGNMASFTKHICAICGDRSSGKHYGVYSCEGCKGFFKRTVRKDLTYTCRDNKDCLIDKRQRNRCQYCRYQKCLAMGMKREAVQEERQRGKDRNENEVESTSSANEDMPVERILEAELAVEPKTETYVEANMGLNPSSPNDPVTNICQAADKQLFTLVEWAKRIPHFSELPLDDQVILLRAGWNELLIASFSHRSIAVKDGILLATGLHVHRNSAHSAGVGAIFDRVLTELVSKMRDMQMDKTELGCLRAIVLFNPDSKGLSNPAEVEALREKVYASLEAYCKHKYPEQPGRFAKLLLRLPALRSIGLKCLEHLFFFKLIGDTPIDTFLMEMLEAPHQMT
Protocol: as §1

hu apoAI transgenic mice = test: Evaluation of triglyceride and cholesterol level in HuapoAI transgenic mice; format: in vivo; settings: 100 mg/kg oral gavage daily for 7 days

Structure (SMILES)	pEC50 (huPPARδ)	Emax (huPPARδ; CV-1, read-out: Eff % δ)	pEC50 (huPPARα)	Emax (huPPARα; CV-1, read-out: Eff % α)	Emax (huPPARγ; CV-1, Table 4, percent efficacy relative to reference agonist, read-out: Eff % γ)	pEC50 (huPPARγ; Table 4, effect of X/Y, scaffold drawing 255)	high-density lipoprotein cholesterol (HDLc) peak area (hu apoAI transgenic mice; FPLC of pooled sera, vehicle 47 to 62 v-sec)	mean percent increase of HDLc (hu apoAI transgenic mice; FPLC of pooled sera, versus vehicle)	average triglycerides values (hu apoAI transgenic mice; serum, vehicle about 60 to 80 mg/dl)	mean elevation of total serum cholesterol (hu apoAI transgenic mice; versus vehicle)	mean reduction of triglycerides (hu apoAI transgenic mice; versus vehicle)
CCc1ccc(OC(C)CCSc2ccc(OCC(=O)O)c(C)c2)c(C(=O)c2ccccc2)c1 (centres unmarked) [S/O]	7.64	112%	5.54	39%	63%	6.58					
CC(C)OC(=O)C(C)(C)Oc1ccc(C(=O)c2ccc(Cl)cc2)cc1 [fenofibrate]							68-96 v-sec	48%	33 to 58 mg/dL	41%	37%
